Results published in patent US20250325500A1, “USE OF 5-METHOXY-2-AMINOINDAN ("MEAI") IN METHODS FOR TREATING COCAINE ADDICTION” (Clearmind Medicine Inc., priority 2022, published 2025).

Key:
Format in all cases: in vivo, rat
[1] = tested on: rats; assay: Conditioned Place Preference (CPP) model, reward-like effect of MEAI; conditions: 5 conditioning days, test on 6th day, difference from baseline
Description: (§1) Two groups were tested: One group received MEAI (four different doses), while the second group received cocaine in each conditioning day. Additionally, some rats that received cocaine were treated with MEAI on the test day to determine if MEAI has a treatment-like effect.
(§2) In the CPP assay, the rats learned to associate a reward with an environmental cue. Two groups of rats were put through a three-day baseline period during which each rat was allowed to freely move during 20 minutes from a striped to a smooth compartment in a closed arena. Time measurements were taken to determine which compartment the rat spent more time in (i.e., preferred). Baseline data was determined as an average duration of time spent in each compartment. After the baseline period, a training period of 5 days was conducted in which rats were injected with saline (I.P.) in the morning and placed in the preferred compartment for 20 minutes. Four hours after the saline injection, cocaine (15 mg/kg I.P.) or MEAI (4 doses; 20, 10, 5 and 2.5 mg/kg I.P.) was injected and the rat was placed in the less preferred compartment for 20 minutes. On the 6th day, a CPP test was conducted (identical to the baseline period) to determine if MEAI imparts a reward-like effect similar to cocaine. The duration time spent in each compartment was calculated as the difference between the baseline time and the testing time (seconds) as previously described.
In the first part of this study, we examined whether administration of MEAI in four different doses […] reward.

[2] = tested on: rats; assay: Side effects observed in rats dosed with MEAI during CPP conditioning; conditions: anxiety, diarrhea, secretion of vaginal plug
Description: as §2
We started testing with 20 mg/kg of MEAI. […] Due to these side effects, we decided to test lower doses of MEAI as opposed to higher doses. Accordingly, the following dose tested was 10 mg/kg of MEAI. 51% of the rats receiving this dose had side effects, including anxiety, aggressiveness, piloerection, tremors low body posture, diarrhea, and secretion of “vaginal plug,” with a trend towards improved symptoms, although not statistically significant, compared to the 20 mg/kg dose. […] Overall, the mean that was most negative was for the dose 5 mg/kg, and therefore we decided to test the efficacy of this dose as a treatment for cocaine preference in rats.

[3] = tested on: cocaine preference in rats; assay: CPP test, MEAI as a treatment for cocaine preference in rats; conditions: rats conditioned with cocaine 15 mg/kg
Description: as §1
as §2, with “Four hours after the saline injection, cocaine (15 mg/kg I.P.) or MEAI (4 doses; 20, 10, 5 and 2.5 mg/kg I.P.) was injected and the rat was placed in the less preferred compartment for 20 minutes. On the 6th day, a CPP test was conducted (identical to the baseline period) to determine if MEAI imparts a reward-like effect similar to cocaine.” left out, “described. […]” for “described.”
The two groups were divided as values below 100 seconds in a non-preferred compartment (MEAI A) and above 100 seconds (MEAI B). […] The behavioral data were analyzed with Ordinary one-way ANOVA. Data was expressed as mean±SEM and a probability value of […] was considered significant. n=5-12 rats per group. […]

COc1ccc2c(c1)CC(N)C2 (stereo not shown) [MEAI, 5-methoxy-2-aminoindan]
duration of time spent in a non-preferred place (reward) ([1]; MEAI 2.5 mg/kg I.P.): negative | duration of time spent in a non-preferred place (reward) ([1]; MEAI 5 mg/kg I.P.): negative | duration of time spent in a non-preferred place (reward) ([1]; MEAI 10 mg/kg I.P.): rewarding effect | duration of time spent in a non-preferred place (reward) ([1]; MEAI 20 mg/kg I.P.): low reward | rats presenting side effects ([2]; MEAI 2.5 mg/kg I.P.): 21.4% | rats presenting side effects ([2]; MEAI 5 mg/kg I.P.): 20.2% | rats presenting side effects ([2]; MEAI 10 mg/kg I.P., aggressiveness, piloerection, tremors, low body posture): 51% | rats presenting side effects ([2]; MEAI 20 mg/kg I.P., aggressiveness, piloerection, tremors, low body posture): 65.7% | decrease of reward in cocaine-conditioned rats, 5 mg/kg versus 10 mg/kg ([3]; MEAI 5 mg/kg i.p. compared with 10 mg/kg i.p. on test day (FIG. 2)): better results in decreasing reward | compartment preference of cocaine-conditioned rats after treatment ([3]; MEAI 5 mg/kg i.p. on test day, 10 min before test): mixed
